Among the data in PubChem BioAssay (NCI) are TGI values, retold here.

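Five compound concentrations were applied to cells in 96-well plates for 48 hours; endpoints were derived by simple linear interpolation of the resulting dose-response curve. The concentration for full growth arrest is given as TGI.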 Where a SMILES comes first, the peptide text is derived from it. [ ]: non-standard residue; d: D form. The star is where a group is joined. Phe(4-NO2) = N[CH](Cc1ccc([N+](=O)[O-])cc1)C(=O)O; Cbz = O=C(OCc1ccccc1)*

Among the test systems are RPMI-8226 leukemia; MDA-MB-435; SF-539 CNS; LOX IMVI melanoma; SF-295 CNS; OVCAR-3 ovarian; COLO 205 colon; NCI-H522 lung; 786-0 renal; IGROV1 ovarian; CAKI-1 renal; M14 melanoma; MCF7 breast; SK-MEL-28 melanoma; SK-MEL-2 melanoma; NCI-H226 lung; SR leukemia; UACC-257 melanoma; UO-31 renal; SNB-75 CNS.
Assay in all cases: NCI-60 cell line screen, 48 h

As for `Cc1ccc2nc(N/N=C/c3ccc(C)s3)cc(C)c2c1`, the TGI in the assay on RPMI-8226 leukemia was 56.6 µM; with MDA-MB-435, 23.1 µM; in the assay with SF-539 CNS it was 24.4 µM; with LOX IMVI melanoma, 14.4 µM; with SF-295 CNS, 21.1 µM; in the assay on OVCAR-3 ovarian it was 17.4 µM. The TGI in the assay with COLO 205 colon stood at 12.2 µM; in the assay on NCI-H522 lung, 18.9 µM; with 786-0 renal, 11.3 µM; in the assay with IGROV1 ovarian, 23.6 µM; in the assay on CAKI-1 renal it was 30.9 µM; in the assay on M14 melanoma, 23.3 µM. Also, the TGI is 20 µM in the assay with MCF7 breast; 28.9 µM in the assay with SK-MEL-28 melanoma; 35.3 µM with SK-MEL-2 melanoma; 31.7 µM in the assay with NCI-H226 lung; more than 100 µM in the assay on SR leukemia; 19.9 µM with UACC-257 melanoma.

In the case of `CCOC(=O)/C(C=Nc1c(C)n(C)n(-c2ccccc2)c1=O)=C(/O)c1ccccc1`, the TGI in the assay on RPMI-8226 leukemia, in the assay on MDA-MB-435, in the assay on SF-539 CNS, in the assay with LOX IMVI melanoma, with SF-295 CNS and in the assay with OVCAR-3 ovarian was more than 100 µM in each case. Further, the TGI in the assay on COLO 205 colon, in the assay with NCI-H522 lung, in the assay on UO-31 renal, in the assay on 786-0 renal, with IGROV1 ovarian and in the assay on CAKI-1 renal was more than 100 µM each time. Further, the TGI in the assay on M14 melanoma, in the assay with MCF7 breast, in the assay with SK-MEL-28 melanoma, in the assay with SK-MEL-2 melanoma, in the assay on NCI-H226 lung and in the assay with SR leukemia was more than 100 µM in each case. Further, in the assay with UACC-257 melanoma, the TGI was more than 100 µM.

Take `CCN1CCN(c2nc3ccccc3nc2C(=O)c2ccc(OC)cc2)CC1`: the TGI with RPMI-8226 leukemia is 43.7 µM; in the assay on MDA-MB-435, more than 100 µM; with SF-539 CNS, more than 100 µM; in the assay on LOX IMVI melanoma, more than 100 µM; in the assay on SF-295 CNS it was more than 100 µM; with OVCAR-3 ovarian it was more than 100 µM. Moreover, the TGI in the assay with COLO 205 colon is more than 100 µM; with NCI-H522 lung, more than 100 µM; with UO-31 renal it was more than 100 µM; in the assay on 786-0 renal, 64.8 µM; with SNB-75 CNS, more than 100 µM; with IGROV1 ovarian it was more than 100 µM. For the same compound, the TGI in the assay on CAKI-1 renal is more than 100 µM; in the assay on M14 melanoma, 37.3 µM; in the assay on MCF7 breast, 58.8 µM; in the assay on SK-MEL-28 melanoma it was more than 100 µM; in the assay with SK-MEL-2 melanoma, more than 100 µM; in the assay on SR leukemia, 93.4 µM. This compound gave a TGI in the assay on UACC-257 melanoma of 35.3 µM.

Turning to `O=C(/C=C/c1ccc(O)c(O)c1)OCc1ccccc1`, the TGI is 32.2 µM in the assay with RPMI-8226 leukemia; 97.3 µM with MDA-MB-435; 24.5 µM with SF-539 CNS; 71.6 µM in the assay on LOX IMVI melanoma; 57.4 µM with SF-295 CNS; more than 100 µM with OVCAR-3 ovarian. Besides, the TGI in the assay with COLO 205 colon came out at 70.9 µM; in the assay on NCI-H522 lung, 7.77 µM; in the assay on UO-31 renal, 51.1 µM; in the assay with 786-0 renal, 84.3 µM; in the assay with IGROV1 ovarian, 13.5 µM; in the assay with CAKI-1 renal it was 67.3 µM. In addition, the TGI is 48.2 µM in the assay on M14 melanoma; 37.9 µM in the assay on MCF7 breast; 61.3 µM in the assay with SK-MEL-28 melanoma; 82 µM in the assay with SK-MEL-2 melanoma; more than 100 µM in the assay with NCI-H226 lung; 19.7 µM with SR leukemia. For the same compound, in the assay on UACC-257 melanoma, the TGI turned out to be 59.1 µM.

Consider `CCCCCN1CCN(c2ncccn2)CC1`, for which the TGI in the assay on RPMI-8226 leukemia, in the assay on MDA-MB-435, with SF-539 CNS, with LOX IMVI melanoma, with SF-295 CNS and with OVCAR-3 ovarian was more than 100 µM throughout. Also, the TGI in the assay on COLO 205 colon, in the assay with NCI-H522 lung, in the assay on UO-31 renal, in the assay with 786-0 renal, with SNB-75 CNS and in the assay with IGROV1 ovarian was more than 100 µM throughout. The TGI in the assay on CAKI-1 renal, in the assay with M14 melanoma, with MCF7 breast, in the assay with SK-MEL-28 melanoma, in the assay with SK-MEL-2 melanoma and in the assay on SR leukemia was more than 100 µM in each case. This compound also came in with a TGI with UACC-257 melanoma of more than 100 µM.

For the compound `CCOC(=O)CCC(NC(=O)OCc1ccccc1)C(=O)NC(CCC(=O)OCC)C(=O)NC(Cc1ccc([N+](=O)[O-])cc1)C(=O)NC(CCC(=O)OCC)C(=O)NC(CCC(=O)OCC)C(=O)OCC` (stereo unspecified) (Cbz-E(OEt)E(OEt)[Phe(4-NO2)]E(OEt)E(OEt)-OEt; configuration not given here), the TGI in the assay on RPMI-8226 leukemia, with MDA-MB-435, with LOX IMVI melanoma, with SF-295 CNS, in the assay with COLO 205 colon and in the assay with NCI-H522 lung was more than 100 µM each time. Further, the TGI in the assay on UO-31 renal, in the assay with 786-0 renal, with SNB-75 CNS, with IGROV1 ovarian, in the assay with CAKI-1 renal and in the assay on MCF7 breast was more than 100 µM throughout. Moreover, the TGI in the assay on SK-MEL-28 melanoma, in the assay on SK-MEL-2 melanoma, in the assay on SR leukemia and in the assay on UACC-257 melanoma was more than 100 µM throughout.

Regarding `CCCc1cc(=O)oc2c(C=O)c(O)cc(O)c12`, the TGI with RPMI-8226 leukemia was 66.5 µM; in the assay on MDA-MB-435, 55.3 µM; in the assay on SF-539 CNS it was 57 µM; in the assay with LOX IMVI melanoma, 40.3 µM; in the assay with SF-295 CNS, 85 µM; with OVCAR-3 ovarian it was 44.3 µM. Further, the TGI with COLO 205 colon is 40.8 µM; in the assay on NCI-H522 lung it was 41.9 µM; with UO-31 renal, 60.2 µM; in the assay on 786-0 renal, more than 100 µM; in the assay on SNB-75 CNS it was 47.4 µM; in the assay with IGROV1 ovarian, more than 100 µM. Also, the TGI in the assay on CAKI-1 renal was 75.8 µM; in the assay on M14 melanoma, 52.7 µM; in the assay with MCF7 breast, 80 µM; in the assay on SK-MEL-28 melanoma, 62.8 µM; in the assay with SK-MEL-2 melanoma, 48.4 µM; with SR leukemia, 58.1 µM. This compound displayed a TGI in the assay with UACC-257 melanoma of 65.2 µM.

For `CCN1C(=S)n2cccc2C1CC(=O)c1ccc(Cl)cc1` (stereo unspecified), the TGI in the assay with RPMI-8226 leukemia, with MDA-MB-435, in the assay with LOX IMVI melanoma, in the assay on SF-295 CNS, in the assay with OVCAR-3 ovarian and with NCI-H522 lung was more than 100 µM in each case. Also, the TGI with UO-31 renal, in the assay with 786-0 renal, in the assay on SNB-75 CNS, with IGROV1 ovarian, in the assay on CAKI-1 renal and with M14 melanoma was more than 100 µM throughout. For the same compound, the TGI in the assay on MCF7 breast, with SK-MEL-28 melanoma, with SK-MEL-2 melanoma, in the assay on SR leukemia and in the assay on UACC-257 melanoma was more than 100 µM each time.
